Results: patent US7728039B2, “Biphenyl and Naphthyl-Phenyl Hydroxamic Acid Derivatives” (Sigma-Tau Industrie Farmaceutiche Riunite S.p.A., priority 2005, dated 2010)
Where two headings read alike, the source gives them in different places.

What was measured:
[1] = system: NB4 promyelocytic leukaemia cells; assay: Differentiation of NB4 tumour cells by nitroblue tetrazolium (NBT) reduction, with or without ATRA; assay type: cell-based, human; settings: 3 days, NBT-reducing activity; for Differentiation AC50: compound alone (without ATRA)
Excerpt: Relevant aspects of the differentiation program set in motion by ATRA in APL cells can be reproduced in primary cultures of leukemic blasts and in the derived NB4 cell line, which is a unique model for the study of the pharmacologic activity of ATRA and derivatives. Pharmacological concentrations of ATRA arrest the growth of NB4 blasts and differentiate them into cells that resemble mature neutrophils. This is followed by a slow process of apoptosis. […] In particular, the differentiation of NB4 tumour cells induced by the compounds was determined by nitroblue tetrazolium (NBT) reduction. NB4 promyelocytic leukaemia cells were seeded at a density of 150000 cells/ml in RPMI 1640 medium containing 10% FCS. To measure the cytodifferentiating effect of the molecules, tumour cells were treated with the compounds at different concentrations starting from at least 0.4 μM to 0.01 μM, whereas to measure the enhancing action of the molecules of ATRA activity, NB4 cells were treated with increasing concentrations of the molecules in the presence or absence of ATRA at a suboptimal concentration (5 nM).
Tumour cells were incubated for 3 days at 37° C. without replacing the medium culture. To measure the prodifferentiative effect, 500,000 cells were collected, centrifuged and resuspended in 1 ml of RPMI 1640 medium containing 10% FCS, 1 mg/ml of nitroblue tetrazolium (NBT) and 100 ng of PMA (4-phorbol-12-myristate-13-acetate). The tumour cells resuspended were incubated at 37° C. for 60 min. At the end of the incubation, tumour cells were centrifuged and the pellet was resuspended in 1 ml of PBS containing Triton ×100 at 10%. The samples were sonicated and the absorbance was determined at 540 nm with a spectrophotometer. Differentiation of tumor cells as AC50 (activating concentration) was evaluated as the concentration of the compound giving 50% of the maximal induction of NBT-reducing activity with or without ATRA.

[2] = system: NB4 human promyelocytic leukaemia; assay: Sulphorodamine B cytotoxicity test on NB4 cells; assay type: cell-based
Excerpt: (§1) The cytotoxic effect of some biphenyl and phenylnaphthyl compounds bearing a hydroxamic acid group is reported herein. […] The chemical structures of the tested compounds of the invention and of the corresponding compounds bearing a carboxylic acid group are reported in FIG. 1. To test the effects of the compounds on cell growth, NB4 human promyelocytic leukaemia, NCI-H460 non-small cell carcinoma cells, H460/(R9A) (resistant to carboxylic acid-bearing compounds: ST1898, ST1926, ST1964), HCT-116 human colon carcinoma cells, IGROV-1 and IGROV-1/Pt (sensitive ovarian carcinoma and platinum-resistant ovarian carcinoma cells, respectively) were used. NB4 and NCI-H460 tumour cells were grown in RPMI 1640 containing 10% foetal bovine serum (GIBCO), HCT-116 tumour cells were grown in McCoy's 5A containing 10% foetal bovine serum (GIBCO), IGROV-1 and IGROV-1/Pt were grown in DMEM containing 10% foetal bovine serum (GIBCO),
(§2) Tumour cells were seeded in 96-well tissue culture plates at approximately 10% confluence and were allowed to attach and recover for at least 24 h. Varying concentrations of the drugs were then added to each well to calculate their IC50 value (the concentration which inhibits the 50% of cell survival). The plates were incubated for 24 h at 37° C. At the end of the treatment, for NB4 tumour cells in suspension, the procedure was performed as follows: medium culture was removed by centrifugation of the plates at 1600×g for 10 min and the surnatant was removed. 250 μl PBS were added, then the plates were centrifuged at 1600×g for 10 min, the surnatant was removed. 200 μl/well of medium culture RPMI 1640 containing 10% FCS were added and the plates were incubated at 37° C. for other 48 h. The plates were centrifuged again at 1600×g for 10 min, the medium culture was removed and 200 μl PBS and 50 μl of cold 80% TCA were added. The plates were incubated on ice for at least 1 h. TCA was removed, the plates were washed 3 times for immersion in distilled-water and dried on paper and at 40° C. for 5 min. Then 200 μl of 0.4% sulphorodamine B in 1% acetic acid were added. The plates were incubated at room temperature for other 30 min. Sulphorodamine B was removed, the plates were washed for immersion in 1% acetic acid for 3 times, then they were dried on paper and at 40° C. for 5 min. Then 200 μl Tris 10 mM were added, the plates were kept under stirring for 20 min. The survival cell was determined as optical density by a Multiskan spectrofluorimeter at 540 nm. For the tumour cells in adhesion (NCI-H460 and HCT-116), the procedure was as above mentioned, except that at the end of the treatment, the plates were washed by remotion of the surnatant and addition of PBS 3 times without centrifugation. Also the last day of the assay, the surnatant was removed without centrifugation.
(§3) The amount of cells killed was calculated as the percentage decrease in sulphorodamine B binding compared with control cultures. The IC50 values (the concentration which inhibits the 50% of cell survival) were calculated with the “ALLFIT” program.

[3] = system: NCI-H460 R9A tumour cells (H460/(R9A), resistant to carboxylic acid-bearing compounds); assay: Sulphorodamine B cytotoxicity test on ST1926-resistant NCI-H460 R9A cells; assay type: cell-based; settings: for RI (resistance index): IC50 on resistant tumour cell line/IC50 on sensitive tumour cell line (NCI-H460 R9A / NCI-H460); for IC50: Table 3, resistant NCI-H460 R9A, SRB, read-out: IC50 ± SD, NCI-H460 R9A; for overcoming of resistance on H460/R9A: H460/R9A versus sensitive NCI-H460, result in words
Excerpt: as §1, §2, §3
The resistant tumour cell line NCI H460 R9A was a clone selected for the resistance to ST1926 (Table 3). To obtain the resistant tumour cell line, the sensitive NCI-H460 tumour cells were treated with 2 μM ST1926 for 24 hours and maintained in drug-free medium for a recovering time of 7 days. Then, survived cells were cultured applying a continuous selective pressure of 2 μM (10×IC50) ST1926. Resistant NCI-H460 cells were subculture for 3-4 times before increasing ST1926 concentration to 4 μM (20×IC50). Survived cells were seeded in 96-well plates to isolate resistant cells clones and maintained in complete medium with 4 μM of ST1926. The tumour cell line was maintained at least for one week, before seeding for SRB cytotoxicity assay, in drug-free medium.
To evaluate the effect of the compound on survival cells, the sulphorodamine B test was used. […]

[4] = system: NCI-H460 non-small cell carcinoma cells; assay: Sulphorodamine B cytotoxicity test on NCI-H460 cells; assay type: cell-based; settings: SRB, read-out: IC50 ± SD, NCI-H460
Experimental: The chemical structures of the tested compounds of the invention and of the corresponding compounds bearing a carboxylic acid group are reported in FIG. 1. […] NB4 and NCI-H460 tumour cells were grown in RPMI 1640 containing 10% foetal bovine serum (GIBCO), HCT-116 tumour cells were grown in McCoy's 5A containing 10% foetal bovine serum (GIBCO), IGROV-1 and IGROV-1/Pt were grown in DMEM containing 10% foetal bovine serum (GIBCO),
as §2, §3

[5] = system: IGROV-1/Pt (platinum-resistant ovarian carcinoma cells); assay: Sulphorodamine B cytotoxicity test on IGROV-1/Pt cells; assay type: cell-based; settings: read-out: IC50 ± SD, IGROV-1/Pt
Excerpt: as §1, §2, §3

[6] = system: IGROV-1 (sensitive ovarian carcinoma cells); assay: Sulphorodamine B cytotoxicity test on IGROV-1 cells; assay type: cell-based; settings: read-out: IC50 ± SD, IGROV-1
Excerpt: as §1, §2, §3

[7] = system: HCT-116 human colon carcinoma cells; assay: Sulphorodamine B cytotoxicity test on HCT-116 cells; assay type: cell-based; settings: Table 2, SRB, read-out: IC50 ± SD, HCT-116
Excerpt: as §1, §2, §3

[8] = Homo sapiens, NB-4, Table 4, NB4 tumour cells, compound alone, read-out: IC50 (μM ± SD)
[9] = Table 4, NB4 tumour cells, compound alone, read-out: IC50 (μM ± SD)
[10] = Homo sapiens, NCI-H460, Table 3, sensitive NCI-H460
[11] = Homo sapiens, NB-4, Table 1, NB4, 24 h treatment, 48 h recovery, SRB, read-out: IC50 ± SD, NB4
[12] = Homo sapiens, NCI-H460, Table 2, NCI-H460

Compound: O=C(/C=C/c1ccc(-c2ccccc2)cc1)NO [ST3256, E-3-(biphenyl-4-yl)-N-hydroxy-acrylamide, reference compound]
- Differentiation AC50 [1]: no differentiation
- IC50 [2, 8]: 0.9 ± 0.1 µM

Compound: CN(C)c1ccc(-c2ccc(/C=C/C(=O)NO)cc2)cc1 [ST3444, E-3-[4′-dimethylaminobiphenyl-4-yl]-N-hydroxy-acrylamide, reference compound]
- Differentiation AC50 [1]: no differentiation
- IC50 [2, 8]: 0.86 ± 0.05 µM

Compound: O=C(O)/C=C/c1ccc(-c2ccc(O)c(C34CC5CC(CC(C5)C3)C4)c2)cc1 [ST1926, E-3-(4′-hydroxy-3′-adamantylbiphenyl-4-yl)acrylic acid, reference compound]
- Differentiation AC50 [1]: no differentiation
- RI (resistance index) [3]: 77.7
- IC50 [3]: 10100 ± 700 nM
- IC50 [2, 9]: 0.082 ± 0.005 µM
- IC50 ([4]; Table 3, sensitive NCI-H460): 130 ± 10 nM

Compound: E,E-5-biphenylyl-pentadienoic acid N-hydroxyamide [ST3400, reference compound]
- Differentiation AC50 [1]: no differentiation
- IC50 [2, 9]: 0.66 ± 0.003 µM

Compound: O=C(NO)c1ccc2cc(-c3ccc(O)c(C45CC6CC(CC(C6)C4)C5)c3)ccc2c1 [ST2142, 6-[3-1-(adamantyl)-4-hydroxyphenyl]-naphthalene-2-carboxylic acid N-hydroxyamide]
- AC50 ([1]; combined with suboptimal ATRA (5 nM)): 310 nM
- Differentiation AC50 [1]: no differentiation
- IC50 ([5]; Table 2, SRB): 1100 ± 30 nM
- IC50 ([6]; Table 2, SRB): 650 ± 100 nM
- IC50 [7]: 2900 ± 200 nM
- overcoming of resistance on H460/R9A [3]: completely overcame the resistance
- RI (resistance index) [3]: 2.2
- IC50 [3]: 2200 ± 100 nM
- IC50 [2, 9]: 2.4 ± 0.08 µM
- IC50 ([4]; Table 2, NCI-H460): 1000 ± 60 nM
- IC50 ([4]; Table 3, sensitive NCI-H460): 1000 ± 60 nM

Compound: O=C(O)c1ccc2cc(-c3ccc(O)c(C45CC6CC(CC(C6)C4)C5)c3)ccc2c1 [ST1964, 6-[3′-(1-adamantyl)-4′-hydroxyphenyl]-2-naphthalenecarboxylic acid, reference compound]
- Differentiation AC50 [1]: no differentiation
- IC50 ([3]; Homo sapiens): 12700 ± 700 nM
- RI (resistance index) [3]: 34
- IC50 [2, 8]: 0.4 ± 0.05 µM
- IC50 [4, 10]: 370 ± 20 nM

Compound: COc1ccc(-c2ccc(/C=C/C(=O)NO)cc2)cc1C12CC3CC(CC(C3)C1)C2 [ST3056, E-3-(3′-Adamantan-1-yl-4′-methoxy-biphenyl-4-yl)-N-hydroxy-acrylamide]
- IC50 ([5]; Homo sapiens, Table 1, SRB): 1790 ± 70 nM
- IC50 ([6]; Homo sapiens, Table 1, SRB): 960 ± 30 nM
- IC50 ([7]; Homo sapiens): 1300 ± 100 nM
- overcoming of resistance on H460/R9A [3]: completely overcame the resistance
- IC50 ([3]; Homo sapiens): 1200 ± 40 nM
- RI (resistance index) [3]: 1.9
- IC50 [2, 11]: 0.6 ± 0.05 µM
- IC50 [4, 12]: 620 ± 40 nM
- IC50 [4, 10]: 620 ± 40 nM

Compound: O=C(/C=C/c1ccc(-c2ccc(O)c(C34CC5CC(CC(C5)C3)C4)c2)c(Cl)c1)NO [ST3088, E-3-(3′-Adamantan-1-yl-2-chloro-4′-hydroxy-biphenyl-4-yl)-N-hydroxy-acrylamide]
- IC50 ([5]; Homo sapiens, Table 2, SRB): 1610 ± 100 nM
- IC50 ([6]; Homo sapiens, Table 2, SRB): 1340 ± 40 nM
- IC50 ([7]; Homo sapiens): 5400 ± 900 nM
- overcoming of resistance on H460/R9A [3]: the same characteristic are retained
- IC50 ([3]; Homo sapiens): 7500 ± 100 nM
- RI (resistance index) [3]: 1.4
- IC50 [4, 12]: 5400 ± 300 nM
- IC50 [4, 10]: 5400 ± 300 nM

Compound: O=C(O)/C=C/c1ccc(-c2ccc(O)cc2)cc1 [ST2188, E-4-(4-hydroxyphenyl)cinnamic acid, reference compound]
- IC50 ([5]; Homo sapiens, Table 1, SRB): 156000 ± 2000 nM
- IC50 ([6]; Homo sapiens, Table 1, SRB): 89000 ± 11000 nM
- IC50 [2, 11]: 78.7 ± 7.4 µM

Compound: O=C(C=Cc1ccc(-c2cc3c(c(C45CC6CC(CC(C6)C4)C5)c2)OCCO3)cc1)NO [ST3081, 3-[4-(8-Adamantan-1-yl-2,3-dihydro-benzo[1,4]dioxin-6-yl)-phenyl]-N-hydroxy-acrylamide]
- IC50 ([5]; Homo sapiens, Table 2, SRB): 840 ± 20 nM
- IC50 ([6]; Homo sapiens, Table 2, SRB): 1220 ± 40 nM
- IC50 ([7]; Homo sapiens): 2550 ± 30 nM
- overcoming of resistance on H460/R9A [3]: the same characteristic are retained
- IC50 ([3]; Homo sapiens): 1390 ± 140 nM
- RI (resistance index) [3]: 0.94
- IC50 [4, 12]: 1000 ± 40 nM
- IC50 [4, 10]: 1480 ± 190 nM

Compound: COc1ccc(-c2ccc(/C=C/C(=O)O)cc2)cc1C12CC3CC(CC(C3)C1)C2 [ST1898, reference compound]
- IC50 ([5]; Table 1, SRB): 1430 ± 50 nM
- IC50 ([6]; Table 1, SRB): 1190 ± 50 nM
- RI (resistance index) [3]: 53.6
- IC50 [3]: 64400 ± 5000 nM
- IC50 ([2]; Table 1, NB4, 24 h treatment, 48 h recovery, SRB, read-out: IC50 ± SD, NB4): 1.1 ± 0.07 µM
- IC50 ([4]; Table 3, sensitive NCI-H460): 1200 ± 20 nM
